{"source": "ChEMBL document CHEMBL2417421", "about": "“Biotransformation of ent-pimaradienoic acid by cell cultures of Aspergillus niger” (2013)", "system": "Aorta", "experiment": "Antispasmodic activity in rat aorta assessed as inhibition of phenylephrine-induced aorta contraction at 100 uM after 60 mins relative to control", "format": "functional", "details": "1 h"}
{"smiles": "C=C[C@]1(C)C=C2CC[C@H]3[C@@](C)(CCC[C@@]3(C)C(=O)O)[C@@H]2CC1", "values": [{"measurement": "inhibition at 100 µM", "value": 73.2, "unit": "%"}]}
{"smiles": "C=C[C@]1(C)C=C2[C@H](O)C[C@H]3[C@@](C)(CCC[C@@]3(C)C(=O)O)[C@@H]2CC1", "values": [{"measurement": "inhibition at 100 µM", "value": 16.8, "unit": "%"}]}
{"smiles": "C=C[C@]1(C)C=C2C=C[C@H]3[C@](C)([C@@H]2CC1)[C@@H](O)CC[C@@]3(C)C(=O)O", "values": [{"measurement": "inhibition at 100 µM", "value": 12.5, "unit": "%"}]}
{"smiles": "C=C[C@@]1(C)CC[C@@H]2C(=C[C@H](O)[C@H]3[C@@]2(C)[C@H](O)CC[C@@]3(C)C(=O)O)[C@H]1O", "values": [{"measurement": "inhibition at 100 µM", "value": 0, "unit": "%"}]}
{"smiles": "C=C[C@]1(C)C=C2[C@@H](O)[C@H](O)[C@H]3[C@@](C)([C@H](O)CC[C@@]3(C)C(=O)O)[C@@H]2[C@@H](O)C1", "values": [{"measurement": "inhibition at 100 µM", "value": 0, "unit": "%"}]}
{"smiles": "C=C[C@@]1(C)CC[C@@H]2C(=CC[C@H]3[C@@]2(C)CCC[C@@]3(C)C(=O)O)C1", "values": [{"measurement": "inhibition at 100 µM", "value": 50.8, "unit": "%"}]}
{"smiles": "C=C[C@]1(C)C=C2C(=O)C[C@H]3[C@@](C)(CCC[C@@]3(C)C(=O)O)[C@@H]2CC1", "values": [{"measurement": "inhibition at 100 µM", "value": 61.5, "unit": "%"}]}
{"smiles": "C=C[C@]1(C)C=C2[C@@H](CC1)[C@]1(C)CCC[C@@](C)(C(=O)OC)[C@H]1C[C@@H]2O", "values": [{"measurement": "inhibition at 100 µM", "value": 82.5, "unit": "%"}]}
{"smiles": "C=C[C@]1(C)C=C2CC[C@@H]3[C@](C)(CO)CCC[C@@]3(C)[C@@H]2CC1", "values": [{"measurement": "inhibition at 100 µM", "value": 58.8, "unit": "%"}]}
{"smiles": "C=C[C@]1(C)C=C2CC[C@H]3[C@@](C)(CCC[C@@]3(C)C(=O)OC)[C@@H]2CC1", "values": [{"measurement": "inhibition at 100 µM", "value": 10.5, "unit": "%"}]}
